In this experiment the test system is CD2F1 mice, L1210 leukemia ip, survival T/C. The experiment is described as follows: NCI In Vivo Anticancer Drug Screen. Data for tumor model L1210 Leukemia (intraperitoneal) in CD2F1 (CDF1) mice. The conditions noted are these: endpoint: mean survival time, higher = longer survival. In short, it runs like this:
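In this screen, transplantable tumors were grown in mice given either the compound or its vehicle. Results were expressed as the treated measurement relative to the control measurement.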

Setting [1] is: dose: 200.0 mg/kg/injection, schedule: Q01DX001 (ip), vehicle: saline with Tween-80.
Setting [2] is: dose: 400.0 mg/kg/injection, schedule: Q01DX001 (ip), vehicle: saline with Tween-80.
[3] abbreviates: dose: 100.0 mg/kg/injection, schedule: Q01DX001 (ip), vehicle: saline with Tween-80.
Where [4] appears, read: dose: 100.0 mg/kg/injection, schedule: Q01DX009 (ip), vehicle: saline with Tween-80.
Where [5] appears, read: dose: 200.0 mg/kg/injection, schedule: Q01DX009 (ip), vehicle: saline with Tween-80.
Where [6] appears, read: dose: 400.0 mg/kg/injection, schedule: Q01DX009 (ip), vehicle: saline with Tween-80.
Setting [7] is: dose: 100.0 mg/kg/injection, schedule: Q04DX003 (ip), vehicle: saline with Tween-80.
Setting [8] is: dose: 200.0 mg/kg/injection, schedule: Q04DX003 (ip), vehicle: saline with Tween-80.
The mark [9] stands for this setting: dose: 400.0 mg/kg/injection, schedule: Q04DX003 (ip), vehicle: saline with Tween-80.

Values joined by “and” are separate entries in the source; they are usually repeats but may differ in a detail not shown here. Identical values can stand only once. Inconclusive results and toxic doses are left out.

`CCOC(=O)c1ccc(N)cc1`: the T/C runs as follows: (dose: 12.5 mg/kg/injection, schedule: Q01DX001 (ip), vehicle: saline with Tween-80) 106 % of control; (dose: 25.0 mg/kg/injection, schedule: Q01DX001 (ip), vehicle: saline with Tween-80) 100 % of control; (dose: 50.0 mg/kg/injection, schedule: Q01DX001 (ip), vehicle: saline with Tween-80) 100 % of control; (dose: 75.0 mg/kg/injection, schedule: Q01DX001 (ip), vehicle: other) 97 % of control; (dose: 75.0 mg/kg/injection, schedule: Q04DX003 (ip), vehicle: saline with Tween-80) 93 % of control; (dose: 150.0 mg/kg/injection, schedule: Q01DX001 (ip), vehicle: other) 103 % of control. The T/C is, setting by setting: (dose: 150.0 mg/kg/injection, schedule: Q04DX003 (ip), vehicle: saline with Tween-80) 100 % of control; under setting [1], 226 % of control and 96 % of control; under setting [2], 100 % of control and 103 % of control.

As to `CCSC(SCC)C(O)C(O)C1COC(C)(C)O1` (stereo unspecified), the T/C runs as follows: under setting [3], 93 % of control; under setting [1], 93 % of control; under setting [2], 101 % of control.

In the case of `NS(=O)(=O)c1ccc(NC(=O)Nc2cccc(F)c2)cc1`, the T/C is, setting by setting: under setting [4], 98 % of control; under setting [5], 106 % of control; under setting [6], 97 % of control.

In the case of `Cc1ccccc1C(C)(C#N)Nc1ccccc1` (stereo unspecified), the T/C runs as follows: under setting [7], 101 % of control; under setting [8], 103 % of control; under setting [9], 104 % of control.

As to `Cc1cc(N2CCCN(C)CC2)nc(/N=C(\N)Nc2ccc(Cl)c(Cl)c2)n1`, the T/C under setting [7] is 88 % of control.

In the case of `CC(=O)C(N=Nc1cccc2c1C(=O)c1cccc(Cl)c1C2=O)C(=O)Nc1ccccc1Cl` (stereo unspecified), the T/C runs as follows: (dose: 75.0 mg/kg/injection, schedule: Q01DX001 (ip), vehicle: saline) 89 % of control; (dose: 150.0 mg/kg/injection, schedule: Q01DX001 (ip), vehicle: saline) 95 % of control.

Consider `NC(=O)C(Cc1ccccc1)NC(=O)c1ccccc1` (stereo unspecified), for which the T/C under setting [4] was 91 % of control.

As to `CN1N=C(N)c2cn(C3OC(CO)C4OC(C)(C)OC43)c3ncnc1c23` (stereo unspecified), the T/C by setting is: (dose: 12.5 mg/kg/injection, schedule: Q01DX005 (ip), vehicle: water) 87 % of control; (dose: 25.0 mg/kg/injection, schedule: Q01DX005 (ip), vehicle: water) 96 % of control; (dose: 50.0 mg/kg/injection, schedule: Q01DX005 (ip), vehicle: water) 104 % of control; (dose: 100.0 mg/kg/injection, schedule: Q01DX005 (ip), vehicle: water) 104 % of control.

As to `COc1ccc(C2C3C=CC(C3)C2C(=O)O)cc1` (stereo unspecified), the T/C is, setting by setting: under setting [4], 96 % of control; under setting [7], 106 % of control; under setting [5], 96 % of control; under setting [8], 103 % of control; under setting [6], 103 % of control; under setting [9], 95 % of control.

With `Cc1ccc(C)c(OC(=O)Nc2cccc3ccccc23)c1`, the T/C is, setting by setting: (dose: 100.0 mg/kg/injection, schedule: Q04DX002 (ip), vehicle: saline with Tween-80) 91 % of control; (dose: 200.0 mg/kg/injection, schedule: Q04DX002 (ip), vehicle: saline with Tween-80) 91 % of control; (dose: 400.0 mg/kg/injection, schedule: Q04DX002 (ip), vehicle: saline with Tween-80) 91 % of control.

Take `CCCC(C)(COC(N)=O)COC(N)=O`: the T/C under setting [7] is 96 % of control, the T/C under setting [8] is 98 % of control and the T/C under setting [9] is 96 % of control.

As for `CC(=O)c1cc(-c2ccc(Cl)cc2)nc2c(Cl)cc(Cl)cc12`, the T/C is 89 % of control (dose: 100.0 mg/kg/injection, schedule: Q01DX001 (ip), vehicle: saline); 87 % of control (dose: 200.0 mg/kg/injection, schedule: Q01DX001 (ip), vehicle: saline); 91 % of control (dose: 400.0 mg/kg/injection, schedule: Q01DX001 (ip), vehicle: saline).

Consider `CC(=O)Nc1cccc(C(F)(F)F)c1`, for which the T/C is 100 % of control (dose: 50.0 mg/kg/injection, schedule: Q01DX009 (ip), vehicle: Klucel (hydroxypropylcellulose) (HPC)); 93 % of control (dose: 100.0 mg/kg/injection, schedule: Q01DX009 (ip), vehicle: Klucel (hydroxypropylcellulose) (HPC)); 100 % of control (dose: 200.0 mg/kg/injection, schedule: Q01DX009 (ip), vehicle: Klucel (hydroxypropylcellulose) (HPC)).

For the compound `COc1ccc(CC(=O)O)cc1OC` (tested in a mixture with another compound), the T/C reads like this: under setting [4], 96 % of control; (dose: 100.0 mg/kg/injection, schedule: Q04DX003 (ip), vehicle: saline sonified) 101 % of control; under setting [5], 98 % of control; (dose: 200.0 mg/kg/injection, schedule: Q04DX003 (ip), vehicle: saline sonified) 101 % of control; under setting [6], 102 % of control; (dose: 400.0 mg/kg/injection, schedule: Q04DX003 (ip), vehicle: saline sonified) 96 % of control.

For `CCN(C(=O)NC)c1cc(C)ccc1OC`, the T/C is, setting by setting: under setting [4], 87 % of control; under setting [5], 87 % of control; under setting [6], 98 % of control.

`CO[C@@]12[C@@H]3N[C@@H]3CN1c1c(O)c(C)c(N=C3N=NC(=S)S3)c(O)c1[C@@H]2COC(N)=O`: the T/C (dose: 1.5 mg/kg/injection, schedule: Q01DX001 (ip), vehicle: distilled water + Tween-80) was 98 % of control; the T/C (dose: 3.0 mg/kg/injection, schedule: Q01DX001 (ip), vehicle: distilled water + Tween-80) was 98 % of control; the T/C (dose: 6.0 mg/kg/injection, schedule: Q01DX001 (ip), vehicle: distilled water + Tween-80) was 98 % of control; the T/C (dose: 12.0 mg/kg/injection, schedule: Q01DX001 (ip), vehicle: distilled water + Tween-80) was 102 % of control; the T/C (dose: 24.0 mg/kg/injection, schedule: Q01DX001 (ip), vehicle: distilled water + Tween-80) was 110 % of control; the T/C (dose: 48.0 mg/kg/injection, schedule: Q01DX001 (ip), vehicle: saline with Tween-80) was 100 % of control. Also, the T/C (dose: 96.0 mg/kg/injection, schedule: Q01DX001 (ip), vehicle: saline with Tween-80) is 110 % of control.

Regarding `O=C1c2ccccc2C(=O)N1OC1CCCCO1` (stereo unspecified), the T/C by setting is: (dose: 100.0 mg/kg/injection, schedule: Q04DX003 (ip), vehicle: Klucel (hydroxypropylcellulose) (HPC)) 92 % of control; (dose: 200.0 mg/kg/injection, schedule: Q04DX003 (ip), vehicle: Klucel (hydroxypropylcellulose) (HPC)) 102 % of control; (dose: 400.0 mg/kg/injection, schedule: Q04DX003 (ip), vehicle: Klucel (hydroxypropylcellulose) (HPC)) 94 % of control.

Turning to `Cc1ccc[n+](CCCCCCCC[n+]2cccc(C)c2)c1`, the T/C is 100 % of control (dose: 0.5 mg/kg/injection, schedule: Q04DX003 (ip), vehicle: saline); 103 % of control (dose: 1.0 mg/kg/injection, schedule: Q04DX003 (ip), vehicle: saline); 106 % of control (dose: 2.0 mg/kg/injection, schedule: Q04DX003 (ip), vehicle: saline).

For the compound `COC(=O)C(NC=O)C(=O)OC`, the T/C runs as follows: (dose: 100.0 mg/kg/injection, schedule: Q01DX009 (ip), vehicle: saline) 105 % of control; (dose: 100.0 mg/kg/injection, schedule: Q04DX003 (ip), vehicle: saline) 93 % of control; (dose: 200.0 mg/kg/injection, schedule: Q01DX009 (ip), vehicle: saline) 107 % of control; (dose: 200.0 mg/kg/injection, schedule: Q04DX003 (ip), vehicle: saline) 101 % of control; (dose: 400.0 mg/kg/injection, schedule: Q01DX009 (ip), vehicle: saline) 117 % of control; (dose: 400.0 mg/kg/injection, schedule: Q04DX003 (ip), vehicle: saline) 95 % of control.

For the compound `O=[N+]([O-])c1cccc(N=Nn2cccc2)c1`, the T/C is 86 % of control (dose: 25.0 mg/kg/injection, schedule: Q01DX009 (ip), vehicle: saline with Tween-80); 106 % of control (dose: 50.0 mg/kg/injection, schedule: Q01DX009 (ip), vehicle: saline with Tween-80); 98 % of control under setting [3]; 102 % of control under setting [4].

Consider `Cc1ccc(S(=O)(=O)N2C(=O)OC3(CCCCC3)C2C)cc1` (stereo unspecified), for which the T/C was 100 % of control under setting [3], 95 % of control under setting [1] and 92 % of control under setting [2].

As to `Cc1cc(C)c([S-])c(C)c1.[Cu+]`, the T/C by setting is: (dose: 4.7 mg/kg/injection, schedule: Q04DX003 (ip), vehicle: saline) 94 % of control; (dose: 9.4 mg/kg/injection, schedule: Q04DX003 (ip), vehicle: saline) 94 % of control.

The values are drawn from PubChem BioAssay AID256 (DTP/NCI, 2004).
